Values quoted from earlier work as cited in article PMC4404702 (Molecular imaging and biology : MIB : the official …, 2014).

What was measured:
σ1 = details: read-out: Ki−σ1
σ2 = details: read-out: Ki−σ2

Ki (σ1): 1.2 ± 0.2 nM
Ki (σ2): 6.1 ± 1.5 nM
Compound: O=C(Cc1cccc(Br)c1)NCc1ccc(F)cc1 [YUN-143, N-(4′-fluorobenzyl)-4-(3-bromophenyl)acetamide]
